Data published in patent publication US20230053540A1, “TREATMENT OF LIVER INJURY” (Massachusetts Institute of Technology, priority 2019, published 2023).

Test system: hepatocytes
Experiment: Seq-Well scRNA-Seq of hepatocytes after APAP overdose (signature scores, DEG vs untreated)
Assay type: in vivo, mouse

CC(=O)Nc1ccc(O)cc1 [APAP, acetaminophen]
Ubb A48logFC (A48 vs UT): −0.2644
0610005C13Rik avg_logFC (A96 vs untreated (UT)): 0.2979
0610005C13Rik pct.1 (A96 vs untreated (UT)): 0.816
0610007P14Rik avg_logFC (A96 vs untreated (UT)): 0.2519
0610007P14Rik pct.1 (A96 vs untreated (UT)): 0.512
8430408G22Rik avg_logFC (A96 vs untreated (UT)): 0.2527
8430408G22Rik pct.1 (A96 vs untreated (UT)): 0.559
Abca6 avg_logFC (A96 vs untreated (UT)): 0.2823
Abca6 pct.1 (A96 vs untreated (UT)): 0.686
Abcb4 avg_logFC (A96 vs untreated (UT)): 0.4758
Abcb4 pct.1 (A96 vs untreated (UT)): 0.878
Abcc3 pct.1 (A96 vs untreated (UT)): 0.733
Acad11 avg_logFC (A96 vs untreated (UT)): 0.2578
Acad11 pct.1 (A96 vs untreated (UT)): 0.711
Acadl avg_logFC (A96 vs untreated (UT)): 0.2937
Acadl pct.1 (A96 vs untreated (UT)): 0.8
Acat1 avg_logFC (A96 vs untreated (UT)): 0.3485
Acat1 pct.1 (A96 vs untreated (UT)): 0.917
Acbd5 avg_logFC (A96 vs untreated (UT)): 0.4341
Acbd5 pct.1 (A96 vs untreated (UT)): 0.87
Acot1 avg_logFC (A96 vs untreated (UT)): 0.298
Acot1 pct.1 (A96 vs untreated (UT)): 0.459
Acot4 avg_logFC (A96 vs untreated (UT)): 0.268
Acot4 pct.1 (A96 vs untreated (UT)): 0.328
Acot12 avg_logFC (A96 vs untreated (UT)): 0.2957
Acot12 pct.1 (A96 vs untreated (UT)): 0.65
Acsl1 avg_logFC (A96 vs untreated (UT)): 0.2915
Acsl1 pct.1 (A96 vs untreated (UT)): 0.977
Actn4 avg_logFC (A96 vs untreated (UT)): 0.2609
Actn4 pct.1 (A96 vs untreated (UT)): 0.6
Agpat6 avg_logFC (A96 vs untreated (UT)): 0.4098
Agpat6 pct.1 (A96 vs untreated (UT)): 0.743
Agt avg_logFC (A96 vs untreated (UT)): 0.3765
Agt pct.1 (A96 vs untreated (UT)): 0.912
Akr1c6 avg_logFC (A96 vs untreated (UT)): −0.359
Akr1c6 pct.1 (A96 vs untreated (UT)): 0.967
Akr1d1 avg_logFC (A96 vs untreated (UT)): 0.3787
Akr1d1 pct.1 (A96 vs untreated (UT)): 0.721
Aldh2 avg_logFC (A96 vs untreated (UT)): 0.304
Aldh2 pct.1 (A96 vs untreated (UT)): 0.995
Aldh3a2 avg_logFC (A96 vs untreated (UT)): 0.4933
Aldh3a2 pct.1 (A96 vs untreated (UT)): 0.687
Aldh6a1 avg_logFC (A96 vs untreated (UT)): 0.2669
Aldh6a1 pct.1 (A96 vs untreated (UT)): 0.829
Aldh9a1 avg_logFC (A96 vs untreated (UT)): 0.3633
Aldh9a1 pct.1 (A96 vs untreated (UT)): 0.884
Amy1 avg_logFC (A96 vs untreated (UT)): 0.4212
Amy1 pct.1 (A96 vs untreated (UT)): 0.831
Angptl3 avg_logFC (A96 vs untreated (UT)): 0.6936
Angptl3 pct.1 (A96 vs untreated (UT)): 0.998
Apoc1 avg_logFC (A96 vs untreated (UT)): 0.5008
Apoc1 pct.1 (A96 vs untreated (UT)): 1
Apoc2 avg_logFC (A96 vs untreated (UT)): 0.5187
Apoc2 pct.1 (A96 vs untreated (UT)): 0.901
Apoc3 avg_logFC (A96 vs untreated (UT)): 0.3002
Apoe avg_logFC (A96 vs untreated (UT)): 0.327
Apoe pct.1 (A96 vs untreated (UT)): 1
Apoh avg_logFC (A96 vs untreated (UT)): 0.3467
Apoh pct.1 (A96 vs untreated (UT)): 0.998
Apol7a avg_logFC (A96 vs untreated (UT)): 0.2716
Apol7a pct.1 (A96 vs untreated (UT)): 0.559
Aqp9 avg_logFC (A96 vs untreated (UT)): 0.3346
Aqp9 pct.1 (A96 vs untreated (UT)): 0.801
Arl4a avg_logFC (A96 vs untreated (UT)): 0.2911
Arl4a pct.1 (A96 vs untreated (UT)): 0.517
Asl avg_logFC (A96 vs untreated (UT)): 0.4141
Asl pct.1 (A96 vs untreated (UT)): 0.896
Atf5 avg_logFC (A96 vs untreated (UT)): 0.2708
Atf5 pct.1 (A96 vs untreated (UT)): 0.745
Atp5k avg_logFC (A96 vs untreated (UT)): 0.4068
Atp5k pct.1 (A96 vs untreated (UT)): 0.837
Atp5h avg_logFC (A96 vs untreated (UT)): 0.3114
Atp5h pct.1 (A96 vs untreated (UT)): 0.848
Atxn7l3b avg_logFC (A96 vs untreated (UT)): 0.2828
Atxn7l3b pct.1 (A96 vs untreated (UT)): 0.654
BC005537 avg_logFC (A96 vs untreated (UT)): 0.2869
BC005537 pct.1 (A96 vs untreated (UT)): 0.611
Baat avg_logFC (A96 vs untreated (UT)): 0.2625
Baat pct.1 (A96 vs untreated (UT)): 0.862
Bche avg_logFC (A96 vs untreated (UT)): 0.3287
Bche pct.1 (A96 vs untreated (UT)): 0.588
Bnip3 avg_logFC (A96 vs untreated (UT)): 0.3443
Bnip3 pct.1 (A96 vs untreated (UT)): 0.716
Brap avg_logFC (A96 vs untreated (UT)): 0.3113
Brap pct.1 (A96 vs untreated (UT)): 0.642
Brd2 avg_logFC (A96 vs untreated (UT)): 0.3104
Brd2 pct.1 (A96 vs untreated (UT)): 0.601
Cbr1 avg_logFC (A96 vs untreated (UT)): 0.2829
Cbr1 pct.1 (A96 vs untreated (UT)): 0.591
Cd36 avg_logFC (A96 vs untreated (UT)): 0.3312
Cd36 pct.1 (A96 vs untreated (UT)): 0.299
Cdo1 avg_logFC (A96 vs untreated (UT)): 0.5679
Cdo1 pct.1 (A96 vs untreated (UT)): 0.998
Ces1c avg_logFC (A96 vs untreated (UT)): 0.3583
Ces1c pct.1 (A96 vs untreated (UT)): 1
Ces1e avg_logFC (A96 vs untreated (UT)): 0.2944
Ces1e pct.1 (A96 vs untreated (UT)): 0.71
Ces3a avg_logFC (A96 vs untreated (UT)): −0.2844
Ces3a pct.1 (A96 vs untreated (UT)): 0.97
Ces3b avg_logFC (A96 vs untreated (UT)): −0.3398
Ces3b pct.1 (A96 vs untreated (UT)): 0.685
Ces1d avg_logFC (A96 vs untreated (UT)): 0.4277
Ces1d pct.1 (A96 vs untreated (UT)): 0.977
Chchd10 avg_logFC (A96 vs untreated (UT)): 0.608
Chchd10 pct.1 (A96 vs untreated (UT)): 0.994
Chp1 avg_logFC (A96 vs untreated (UT)): 0.2687
Chp1 pct.1 (A96 vs untreated (UT)): 0.687
Cox5a avg_logFC (A96 vs untreated (UT)): 0.3398
Cox5a pct.1 (A96 vs untreated (UT)): 0.813
Cox6a1 avg_logFC (A96 vs untreated (UT)): 0.2517
Cox6a1 pct.1 (A96 vs untreated (UT)): 0.943
Cox8a avg_logFC (A96 vs untreated (UT)): 0.3089
Cox8a pct.1 (A96 vs untreated (UT)): 0.737
Cp avg_logFC (A96 vs untreated (UT)): 0.2826
Cp pct.1 (A96 vs untreated (UT)): 0.993
Cpeb4 avg_logFC (A96 vs untreated (UT)): 0.3418
Cpeb4 pct.1 (A96 vs untreated (UT)): 0.527
Cpox avg_logFC (A96 vs untreated (UT)): 0.3326
Cpox pct.1 (A96 vs untreated (UT)): 0.634
Cpt1a avg_logFC (A96 vs untreated (UT)): 0.3742
Cpt1a pct.1 (A96 vs untreated (UT)): 0.837
Crat avg_logFC (A96 vs untreated (UT)): 0.2624
Crat pct.1 (A96 vs untreated (UT)): 0.389
Creg1 avg_logFC (A96 vs untreated (UT)): 0.2586
Creg1 pct.1 (A96 vs untreated (UT)): 0.985
Crot avg_logFC (A96 vs untreated (UT)): 0.3326
Crot pct.1 (A96 vs untreated (UT)): 0.989
Csde1 avg_logFC (A96 vs untreated (UT)): 0.2567
Csde1 pct.1 (A96 vs untreated (UT)): 0.742
Ctage5 avg_logFC (A96 vs untreated (UT)): 0.3217
Ctage5 pct.1 (A96 vs untreated (UT)): 0.837
Cxcl12 avg_logFC (A96 vs untreated (UT)): 0.3372
Cxcl12 pct.1 (A96 vs untreated (UT)): 0.635
Cyp4a10 avg_logFC (A96 vs untreated (UT)): 1.12
Cyp4a10 pct.1 (A96 vs untreated (UT)): 0.974
Cyp4a14 avg_logFC (A96 vs untreated (UT)): 1.601
Cyp4a14 pct.1 (A96 vs untreated (UT)): 0.975
D4Wsu53e avg_logFC (A96 vs untreated (UT)): 0.3032
D4Wsu53e pct.1 (A96 vs untreated (UT)): 0.597
D17Wsu92e avg_logFC (A96 vs untreated (UT)): 0.3581
D17Wsu92e pct.1 (A96 vs untreated (UT)): 0.771
Ddx3x avg_logFC (A96 vs untreated (UT)): 0.2899
Ddx3x pct.1 (A96 vs untreated (UT)): 0.701
Decr1 avg_logFC (A96 vs untreated (UT)): 0.3241
Decr1 pct.1 (A96 vs untreated (UT)): 0.808
Decr2 avg_logFC (A96 vs untreated (UT)): 0.3728
Decr2 pct.1 (A96 vs untreated (UT)): 0.813
Dennd5b avg_logFC (A96 vs untreated (UT)): 0.2871
Dennd5b pct.1 (A96 vs untreated (UT)): 0.548
Dhcr24 avg_logFC (A96 vs untreated (UT)): 0.3842
Dhcr24 pct.1 (A96 vs untreated (UT)): 0.933
Dhdh avg_logFC (A96 vs untreated (UT)): 0.2837
Dhdh pct.1 (A96 vs untreated (UT)): 0.734
Dpys avg_logFC (A96 vs untreated (UT)): 0.2626
Dpys pct.1 (A96 vs untreated (UT)): 0.824
Dusp6 avg_logFC (A96 vs untreated (UT)): 0.3249
Dusp6 pct.1 (A96 vs untreated (UT)): 0.476
Ei24 avg_logFC (A96 vs untreated (UT)): 0.2718
Ei24 pct.1 (A96 vs untreated (UT)): 0.667
Eif4g2 avg_logFC (A96 vs untreated (UT)): 0.2838
Eif4g2 pct.1 (A96 vs untreated (UT)): 0.812
Elovl5 avg_logFC (A96 vs untreated (UT)): 0.3232
Elovl5 pct.1 (A96 vs untreated (UT)): 0.765
Erbb2ip avg_logFC (A96 vs untreated (UT)): 0.2553
Erbb2ip pct.1 (A96 vs untreated (UT)): 0.561
Etfdh avg_logFC (A96 vs untreated (UT)): 0.2802
Etfdh pct.1 (A96 vs untreated (UT)): 0.811
F5 avg_logFC (A96 vs untreated (UT)): 0.3557
Fmo1 avg_logFC (A96 vs untreated (UT)): 0.264
Fmo1 pct.1 (A96 vs untreated (UT)): 0.606
Fth1 avg_logFC (A96 vs untreated (UT)): 0.3226
Fth1 pct.1 (A96 vs untreated (UT)): 0.993
G0s2 avg_logFC (A96 vs untreated (UT)): 0.2947
G0s2 pct.1 (A96 vs untreated (UT)): 0.525
Gabarapl1 avg_logFC (A96 vs untreated (UT)): 0.2984
Gabarapl1 pct.1 (A96 vs untreated (UT)): 0.881
Gclc avg_logFC (A96 vs untreated (UT)): 0.2707
Gclc pct.1 (A96 vs untreated (UT)): 0.839
Gclm avg_logFC (A96 vs untreated (UT)): 0.3282
Gclm pct.1 (A96 vs untreated (UT)): 0.865
Gfra1 avg_logFC (A96 vs untreated (UT)): 0.2571
Gfra1 pct.1 (A96 vs untreated (UT)): 0.687
Gm2a avg_logFC (A96 vs untreated (UT)): 0.3164
Gm2a pct.1 (A96 vs untreated (UT)): 0.587
Gm13775 avg_logFC (A96 vs untreated (UT)): −1.05
Gm13775 pct.1 (A96 vs untreated (UT)): 0.3
Gpld1 avg_logFC (A96 vs untreated (UT)): 0.3039
Gpld1 pct.1 (A96 vs untreated (UT)): 0.748
Grn avg_logFC (A96 vs untreated (UT)): 0.3731
Grn pct.1 (A96 vs untreated (UT)): 0.629
Gsta2 avg_logFC (A96 vs untreated (UT)): 0.3111
Gsta2 pct.1 (A96 vs untreated (UT)): 0.522
Gstm3 avg_logFC (A96 vs untreated (UT)): −0.5668
Gstm3 pct.1 (A96 vs untreated (UT)): 0.23
Gstt3 avg_logFC (A96 vs untreated (UT)): 0.3379
Gstt3 pct.1 (A96 vs untreated (UT)): 0.541
Gyk avg_logFC (A96 vs untreated (UT)): 0.4334
Gyk pct.1 (A96 vs untreated (UT)): 0.616
Hadh avg_logFC (A96 vs untreated (UT)): 0.2626
Hadh pct.1 (A96 vs untreated (UT)): 0.774
Hamp2 avg_logFC (A96 vs untreated (UT)): 0.3052
Hamp2 pct.1 (A96 vs untreated (UT)): 0.203
